Patent publication US12344597B2, “Alkoxy-substituted pyridinyl derivatives as LPA1 receptor antagonists and their use in the treatment of fibrosis” (IDORSIA PHARMACEUTICALS LTD, priority 2018, dated 2025)
pIC50: −log10 of the molar value. Counter-ions that a name gives are not always drawn.

Molecular target: human LPA1 receptor (Homo sapiens (Human), UniProt Q92633)
Experiment: Beta-arrestin recruitment assay to determine IC50 values for human LPAR1
Format: cell-based
Conditions: antagonist mode, Tango EDG2-bla U2OS cells, LPA 18:1 500 nM final
Description: Beta-Arrestin Recruitment Assay to Determine IC50 Values for Human LPAR1
The Tango™ EDG2-bla U2OS cells are obtained from Invitrogen. These cells contain the human LPA1 receptor cDNA linked to a TEV protease site and a Gal4-VP16 transcription factor integrated into the Tango™ GPCR-bla U2OS parental cell line. This parental cell line stably expresses a beta-arrestin/TEV protease fusion protein and the beta-lactamase (bla) reporter gene under the control of a UAS response element. Upon LPA (agonist) binding, LPA1 receptor gets activated, leading to arrestin-protease recruitment and proteolytic release of the transcription factor: The transcription factor then regulates transcription of a beta-lactamase reporter construct, which is measured upon addition of the live-cell substrate.
10′000 Tango™ EDG2-bla U2OS cells are seeded in a 384-well black with clear bottom plate in 30 μl Freestyle 293 Expression Medium (Invitrogen) and incubated for 20 h at 37° C., 5% CO2. […] IC50 is the concentration of antagonist inhibiting 50% of the maximal response.

human LPA1 receptor, sequence (Q92633 whole entry): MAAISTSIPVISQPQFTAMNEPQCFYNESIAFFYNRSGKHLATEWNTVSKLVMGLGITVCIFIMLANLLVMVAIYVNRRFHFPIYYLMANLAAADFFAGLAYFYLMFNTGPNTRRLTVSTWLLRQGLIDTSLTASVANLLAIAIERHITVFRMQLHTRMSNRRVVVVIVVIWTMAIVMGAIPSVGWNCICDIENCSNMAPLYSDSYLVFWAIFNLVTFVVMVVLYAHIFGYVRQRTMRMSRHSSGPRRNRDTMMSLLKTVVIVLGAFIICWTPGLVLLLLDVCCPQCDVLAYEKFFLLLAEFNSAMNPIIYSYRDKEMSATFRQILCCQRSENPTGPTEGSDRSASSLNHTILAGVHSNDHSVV

Row | pIC50 | SMILES
1 | 8.00 | CC(C)c1ccccc1C1(C(=O)Nc2cccnc2OC(F)F)CN(c2ncncc2F)C1 [Ex 18-21, N-(2-(difluoromethoxy)pyridin-3-yl)-1-(5-fluoropyrimidin-4-yl)-3-(2-isopropylphenyl)azetidine-3-carboxamide]
2 | 7.23 | Cc1ccc(NC(=O)C2(c3ccccc3C(C)C)CN(C(=O)COCCOCC(=O)OCc3ccccc3)C2)c(OC(F)F)n1 [Ex 12-106, benzyl 2-(2-(2-(3-((2-(difluoromethoxy)-6-methylpyridin-3-yl)carbamoyl)-3-(2-isopropylphenyl)azetidin-1-yl)-2-oxoethoxy)ethoxy)acetate]
3 | 8.22 | Cc1ccc(NC(=O)C2(c3ccccc3C(C)C)CN(c3ccc(C(=O)O)cn3)C2)c(OC(F)F)n1 [Ex 18-2, 6-(3-((2-(difluoromethoxy)-6-methylpyridin-3-yl)carbamoyl)-3-(2-isopropylphenyl)azetidin-1-yl)nicotinic acid]
4 | 6.70 | Cc1cnc(NC(=O)C2(c3ccccc3C(C)C)CN(C(=O)CC(C)(C)C(=O)O)C2)c(OC(F)F)c1 [Ex 79-6, 4-(3-((3-(difluoromethoxy)-5-methylpyridin-2-yl)carbamoyl)-3-(2-isopropylphenyl)azetidin-1-yl)-2,2-dimethyl-4-oxobutanoic acid]
5 | 7.32 | CNCCN1CC(C(=O)Nc2ccc(C)nc2OC(F)F)(c2ccccc2C(C)C)C1 [Ex 11-62, N-(2-(difluoromethoxy)-6-methylpyridin-3-yl)-3-(2-isopropylphenyl)-1-(2-(methylamino)ethyl)azetidine-3-carboxamide]
6 | 7.66 | NS(=O)(=O)N1CC(C(=O)Nc2ncc(Cl)cc2OC(F)F)(c2ccccc2C2CCCC2)C1 [Example 81-6, N-(5-chloro-3-(difluoromethoxy)pyridin-2-yl)-3-(2-cyclopentylphenyl)-1-sulfamoylazetidine-3-carboxamide]
7 | 8.00 | Cc1ccc(NC(=O)C2(c3ccccc3C(C)C)CN(C(=O)CN(C)S(N)(=O)=O)C2)c(OC(F)F)n1 [Ex 12-8, N-(2-(difluoromethoxy)-6-methylpyridin-3-yl)-3-(2-isopropylphenyl)-1-(N-methyl-N-sulfamoylglycyl)azetidine-3-carboxamide]
8 | 5.36 | COc1cnc(NC(=O)C2(c3ccccc3C(C)C)CNC2)c(OC)c1 [Ex 75, N-(3,5-dimethoxypyridin-2-yl)-3-(2-isopropylphenyl)azetidine-3-carboxamide]
9 | 7.00 | Cc1ccc(NC(=O)C2(c3ccccc3C(C)C)CN(C(=O)CNCC3(C(=O)O)CC3)C2)c(OC(F)F)n1 [Ex 46, 1-(((2-(3-((2-(difluoromethoxy)-6-methylpyridin-3-yl)carbamoyl)-3-(2-isopropylphenyl)azetidin-1-yl)-2-oxoethyl)amino)methyl)cyclopropane-1-carboxylic acid]
10 | 8.40 | CC(C)c1ccccc1C1(C(=O)Nc2cccnc2OC(F)F)CN(c2ccc(C#N)cn2)C1 [Ex 18-23, 1-(5-cyanopyridin-2-yl)-N-(2-(difluoromethoxy)pyridin-3-yl)-3-(2-isopropylphenyl)azetidine-3-carboxamide]
11 | 8.30 | CCOC(=O)CNS(=O)(=O)N1CC(C(=O)Nc2ccc(C)nc2OC(F)F)(c2ccccc2C(C)C)C1 [Ex 15-1, Ethyl ((3-((2-(difluoromethoxy)-6-methylpyridin-3-yl)carbamoyl)-3-(2-isopropylphenyl)azetidin-1-yl)sulfonyl)glycinate]
12 | 7.85 | Cc1ccc(NC(=O)C2(c3ccccc3C(C)C)CCN(S(=O)(=O)CC(=O)O)CC2)c(OC(F)F)n1 [Ex 13-3, 2-((4-((2-(difluoromethoxy)-6-methylpyridin-3-yl)carbamoyl)-4-(2-isopropylphenyl)piperidin-1-yl)sulfonyl)acetic acid]
13 | 7.51 | Cc1ccc(NC(=O)C2(c3ccccc3C(C)C)CN(C(=O)/C=C\C(=O)O)C2)c(OC(F)F)n1 [Ex 12-77, (Z)-4-(3-((2-(difluoromethoxy)-6-methylpyridin-3-yl)carbamoyl)-3-(2-isopropylphenyl)azetidin-1-yl)-4-oxobut-2-enoic acid]
14 | 7.42 | Cc1ccc(NC(=O)C2(c3ccccc3C(C)C)CN(CC3(C(=O)O)CC3)C2)c(OC(F)F)n1 [Ex 11-27, 1-((3-((2-(difluoromethoxy)-6-methylpyridin-3-yl)carbamoyl)-3-(2-isopropylphenyl)azetidin-1-yl)methyl)cyclopropane-1-carboxylic acid]
15 | 8.00 | CC(C)c1ccccc1C1(C(=O)Nc2cc(F)cnc2OC(F)F)CN(S(N)(=O)=O)C1 [Ex 15-15, N-(2-(difluoromethoxy)-5-fluoropyridin-3-yl)-3-(2-isopropylphenyl)-1-sulfamoylazetidine-3-carboxamide]
16 | 8.15 | Cc1ccc(NC(=O)C2(c3ccccc3C(C)C)CN(S(N)(=O)=O)C2)c(OC(C)C)n1 [Ex 15-18, N-(2-isopropoxy-6-methylpyridin-3-yl)-3-(2-isopropylphenyl)-1-sulfamoylazetidine-3-carboxamide]
17 | 7.47 | Cc1ccc(NC(=O)C2(c3ccccc3C(C)C)CN(c3ccnc(C(=O)O)n3)C2)c(OC(F)F)n1 [Ex 18-11, 4-(3-((2-(difluoromethoxy)-6-methylpyridin-3-yl)carbamoyl)-3-(2-isopropylphenyl)azetidin-1-yl)pyrimidine-2-carboxylic acid]
18 | 8.30 | CC(C)c1cccnc1C1(C(=O)Nc2ncc(Cl)cc2OC(F)F)CN(S(N)(=O)=O)C1 [Example 81-7, N-(5-chloro-3-(difluoromethoxy)pyridin-2-yl)-3-(3-isopropylpyridin-2-yl)-1-sulfamoylazetidine-3-carboxamide]
19 | 6.40 | Cc1ccc(NC(=O)C2(c3ccccc3C(C)C)CN(S(=O)(=O)c3[nH]ncc3C(=O)O)C2)c(OC(F)F)n1 [Ex 13-25, 5-((3-((2-(difluoromethoxy)-6-methylpyridin-3-yl)carbamoyl)-3-(2-isopropylphenyl)azetidin-1-yl)sulfonyl)-1H-pyrazole-4-carboxylic acid]
20 | 7.08 | COc1ccc(NC(=O)C2(c3ccccc3C(C)C)CNC2)c(OC)n1 [Ex 6, N-(2,6-dimethoxypyridin-3-yl)-3-(2-isopropylphenyl)azetidine-3-carboxamide hydrochloride]
21 | 7.24 | Cc1ccc(NC(=O)C2(c3ccccc3C(C)C)CN(C(=O)CCNCCO)C2)c(OC(F)F)n1 [Ex 12-60, N-(2-(difluoromethoxy)-6-methylpyridin-3-yl)-1-(3-((2-hydroxyethyl)amino)propanoyl)-3-(2-isopropylphenyl)azetidine-3-carboxamide]
22 | 7.74 | Cc1ccc(NC(=O)C2(c3ccccc3C(C)C)CN(CCC3(C(=O)O)CCOC3)C2)c(OC(F)F)n1 (centres unmarked) [Ex 11-76, 3-(2-(3-((2-(difluoromethoxy)-6-methylpyridin-3-yl)carbamoyl)-3-(2-isopropylphenyl)azetidin-1-yl)ethyl)tetrahydrofuran-3-carboxylic acid]
23 | 7.74 | CCOC(=O)C(F)(F)CC(=O)N1CC(C(=O)Nc2ccc(C)nc2OC(F)F)(c2ccccc2C(C)C)C1 [Ex 12-111, ethyl 4-(3-((2-(difluoromethoxy)-6-methylpyridin-3-yl)carbamoyl)-3-(2-isopropylphenyl)azetidin-1-yl)-2,2-difluoro-4-oxobutanoate]
